Biological target: T1, human GRIN1 (transcript variant NR1-3) and GRIN2D expressed in Xenopus oocytes (Homo sapiens, UniProt O15399)
T1 construct: GenScript (GRIN2D synthesis) SC115601; host or cells: Xenopus oocytes injected with cRNA (1 GluN1 : 2 GluN2)
Experiment: NR2D oocyte potentiation assay (two-electrode voltage clamp)
Type: cell-based
Conditions: 10 uM test compound; glutamate and glycine 10 μM each; holding potential −40 mV
Method: NR2D Oocyte Potentiation Assay. Xenopus oocytes (Xenopus 1, Dexter, Mich.) were initially separated from the lobes of an ovary using surgical forceps; they were then defolliculated by constant agitation at room temperature in OR-2 buffer (82.5 mM NaCl; 2.5 mM KCl; 1 mM MgCl2; 5 mM HEPES; pH 7.4) containing 2 mg/ml collagenase Type 1 (Fisher Scientific, USA) for 1.5-2 hours. The cells were then gently aspirated with a Pasteur pipette to remove the follicular tissue; this was followed by washing three times with OR-2 to remove all traces of collagenase. The oocytes were then washed in ND-96 (96 mM NaCl, 2 mM KCl, 1.8 mM CaCl2, 1 mM MgCl2, 5 mM HEPES, 50 ng/L gentamycin, 100 units/ml penicillin and 100 μg/ml streptomycin; pH 7.6) three times and this was followed by incubation in ND-96 at room temperature with mild agitation for 15 minutes; subsequently they were stored for at least 2 hours at 16° C. before sorting and selection for injection. Oocytes selected for injection were incubated overnight in ND-96 at 16° C.
The human GRIN1 (transcript variant NR1-3 (Origene, SKU #: SC115601, Rockville, Md.) and GRIN2D (NCBI locus NM_000836, sequence optimized and synthesized by GenScript) were linearized and transcribed using the mMessage mMachine kit (Life Technologies) and promoters SP6 (for GluN1) and T7 (for GluN2D). cRNAs were mixed together at a ratio of 1 GluN1:2 GluN2. Each oocyte was injected with 50 nL of cRNA and stored in ND96 (96 mM NaCl, 2 mM KCl, 1.8 mM CaCl2, 1 mM MgCl2, 5 mM HEPES, 50 ng/L gentamycin, 100 units/ml penicillin and 100 μg/ml streptomycin; pH 7.6) at 16° C. for 72 h prior to recording.
Currents were recorded using a two-electrode voltage-clamp amplifier (Oocyte Clamp OC-725C; Warner Instrument Corp, Hamden, Conn.), and digitized using Digidata 1550A and pClamp (v. 10) software (Molecular Devices, Sunnyvale, Calif.). Electrodes were filled with 3 M KCl and had resistances that ranged from 0.2-1 MO. All measurements were made at a holding potential of −40 mV. Cells were continuously perfused with oocyte recording solution containing 90 mM NaCl, 1 mM KCl, 0.5 mM BaCl2, and 10 mM HEPES (Ph 7.4). Glutamate and Glycine (co-agonists) were applied at respective concentrations of 10 μM each. Co-agonists were applied until a plateau was reached, and test compounds were then added in the continued presence of co-agonists until a new plateau was reached. After the addition of the last test compound concentration, the oocyte was washed with oocyte recording buffer. Fraction of current remaining was calculated as [(current in presence of test compound−background current)/(co-agonist current−background current)] and IC50 values were computed using Prism 6.0 (Graphpad).

T1 sequence (O15399 28-1336, other chains not shown): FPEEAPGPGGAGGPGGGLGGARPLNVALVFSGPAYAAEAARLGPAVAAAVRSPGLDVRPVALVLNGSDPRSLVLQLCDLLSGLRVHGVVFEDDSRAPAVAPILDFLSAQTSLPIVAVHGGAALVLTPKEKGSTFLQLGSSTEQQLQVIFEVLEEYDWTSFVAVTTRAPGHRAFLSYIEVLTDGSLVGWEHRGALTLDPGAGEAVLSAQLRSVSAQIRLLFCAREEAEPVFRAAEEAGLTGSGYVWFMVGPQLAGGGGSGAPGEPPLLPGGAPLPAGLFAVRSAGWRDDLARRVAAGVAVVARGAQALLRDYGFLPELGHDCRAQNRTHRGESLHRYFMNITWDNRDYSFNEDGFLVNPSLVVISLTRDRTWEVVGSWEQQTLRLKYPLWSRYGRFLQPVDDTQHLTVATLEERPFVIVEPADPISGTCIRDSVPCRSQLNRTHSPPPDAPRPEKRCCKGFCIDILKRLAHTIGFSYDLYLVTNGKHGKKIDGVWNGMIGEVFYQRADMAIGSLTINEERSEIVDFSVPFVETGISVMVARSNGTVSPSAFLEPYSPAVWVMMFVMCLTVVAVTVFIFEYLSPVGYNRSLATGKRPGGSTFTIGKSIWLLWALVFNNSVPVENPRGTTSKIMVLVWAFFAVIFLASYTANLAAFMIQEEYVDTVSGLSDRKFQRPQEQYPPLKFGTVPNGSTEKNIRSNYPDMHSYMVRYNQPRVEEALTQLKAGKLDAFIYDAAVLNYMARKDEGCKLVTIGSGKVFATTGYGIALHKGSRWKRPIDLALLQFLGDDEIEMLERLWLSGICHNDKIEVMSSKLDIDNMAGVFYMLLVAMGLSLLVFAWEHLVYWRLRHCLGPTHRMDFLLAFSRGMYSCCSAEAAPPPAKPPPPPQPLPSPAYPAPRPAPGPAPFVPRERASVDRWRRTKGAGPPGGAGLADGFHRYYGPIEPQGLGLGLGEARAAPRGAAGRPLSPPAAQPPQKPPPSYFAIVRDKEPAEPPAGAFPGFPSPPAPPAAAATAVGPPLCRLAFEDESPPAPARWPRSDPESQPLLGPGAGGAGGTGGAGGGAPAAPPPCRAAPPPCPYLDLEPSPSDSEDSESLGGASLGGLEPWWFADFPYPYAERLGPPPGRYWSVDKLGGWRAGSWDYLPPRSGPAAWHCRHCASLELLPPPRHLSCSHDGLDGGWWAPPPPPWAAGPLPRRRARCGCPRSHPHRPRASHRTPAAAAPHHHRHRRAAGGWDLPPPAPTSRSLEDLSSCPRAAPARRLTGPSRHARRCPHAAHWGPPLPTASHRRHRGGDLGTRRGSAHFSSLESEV

| SMILES | activation at 10 µM [%] | NR2D Oocyte % Potentiation @ 10 uM |
| --- | --- | --- |
| C=Cc1c(-c2ccc(C(C)(C)C)nc2)nc2n(c1=O)CCCS2 [Example 33, 8-(6-tert-butylpyridin-3-yl)-7-ethenyl-2H, 3H,4H,6H-pyrimido [2,1-b][1,3] thiazin-6-one] | 10 to 100 | – |
| CC1CCc2nc(-c3ccc(C(C)(C)C)nc3)c(C#N)c(=O)n2C1 (centres unmarked) [Example 34, 2-(6-(tert-butyl)pyridin-3-yl)-7-methyl-4-oxo-6,7,8,9-tetrahydro-4H-pyrido[1,2-a]pyrimidine-3-carbonitrile] | 10 to 100 | – |
| Cc1csc2nc(-c3ccc(C(C)(C)C)nc3)c(C#N)c(=O)n12 [Example 35, 7-(6-(tert-butyl)pyridin-3-yl)-3-methyl-5-oxo-5H-thiazolo[3,2-a]pyrimidine-6-carbonitrile] | 100 to 500 | – |
| CC(C)(C)c1ncc(-c2nc3n(c(=N)c2C#N)CCCS3)cc1F [Example 40, 8-(6-(tert-butyl)-5-fluoropyridin-3-yl)-6-imino-3,4-dihydro-2H,6H-pyrimido[2,1-b][1,3]thiazine-7-carbonitrile] | > 1000 | – |
| CC1CSc2nc(-c3cnc(C(C)(C)C)c(F)c3)c(C#N)c(=N)n2C1 (centres unmarked) [Example 41, 8-(6-(tert-butyl)-5-fluoropyridin-3-yl)-6-imino-3-methyl-3,4-dihydro-2H,6H-pyrimido[2,1-b][1,3]thiazine-7-carbonitrile] | > 1000 | – |
| CC1CSc2nc(-c3ccc(C4(C(F)(F)F)CC4)cc3)c(C#N)c(=O)n2C1 (centres unmarked) [Example 46, 3-methyl-6-oxo-8-(4-(1-(trifluoromethyl)cyclopropyl)phenyl)-3,4-dihydro-2H,6H-pyrimido[2,1-b][1,3]thiazine-7-carbonitrile] | 100 to 500 | – |
| N#Cc1c(-c2ccc(C3(C(F)(F)F)CC3)cc2)nc2n(c1=O)CCCS2 [Example 47, 6-oxo-8-(4-(1-(trifluoromethyl)cyclopropyl)phenyl)-3,4-dihydro-2H,6H-pyrimido[2,1-b][1,3]thiazine-7-carbonitrile] | 500 to 1000 | – |
| CC1CSc2nc(-c3ccc(N4CC(C)(F)C4)nc3)c(C#N)c(=O)n2C1 (centres unmarked) [Example 51, 8-(6-(3-fluoro-3-methylazetidin-1-yl)pyridin-3-yl)-3-methyl-6-oxo-3,4-dihydro-2H,6H-pyrimido[2,1-b][1,3]thiazine-7-carbonitrile] | – | Inhibitor |
| CC1CSc2nc(-c3ccc(N4CC(C)(C)C4)nc3)c(C#N)c(=O)n2C1 (centres unmarked) [Example 52, 8-(6-(3,3-dimethylazetidin-1-yl)pyridin-3-yl)-3-methyl-6-oxo-3,4-dihydro-2H,6H-pyrimido[2,1-b][1,3]thiazine-7-carbonitrile] | – | Inhibitor |
| CC1(F)CN(c2ccc(-c3nc4n(c(=O)c3C#N)CCCS4)cn2)C1 [Example 53, 8-(6-(3-fluoro-3-methylazetidin-1-yl)pyridin-3-yl)-6-oxo-3,4-dihydro-2H,6H-pyrimido[2,1-b][1,3]thiazine-7-carbonitrile] | – | Inhibitor |
| CC1(C)CN(c2ccc(-c3nc4n(c(=O)c3C#N)CCCS4)cn2)C1 [Example 54, 8-(6-(3,3-dimethylazetidin-1-yl)pyridin-3-yl)-6-oxo-3,4-dihydro-2H,6H-pyrimido[2,1-b][1,3]thiazine-7-carbonitrile] | – | Inhibitor |
| N#Cc1c(-c2ccc(N3CC(F)(F)C3)nc2)nc2n(c1=O)CCCS2 [Example 55, 8-(6-(3,3-difluoroazetidin-1-yl)pyridin-3-yl)-6-oxo-3,4-dihydro-2H,6H-pyrimido[2,1-b][1,3]thiazine-7-carbonitrile] | – | Inhibitor |
| CC1CSc2nc(-c3ccc(N4CC(F)(F)C4)nc3)c(C#N)c(=O)n2C1 (centres unmarked) [Example 56, 8-(6-(3,3-difluoroazetidin-1-yl)pyridin-3-yl)-3-methyl-6-oxo-3,4-dihydro-2H,6H-pyrimido[2,1-b][1,3]thiazine-7-carbonitrile] | – | Inhibitor |
| N#Cc1c(-c2ccc(Br)nc2)nc2n(c1=O)CCCS2 [Example 57, 8-(6-bromopyridin-3-yl)-6-oxo-3,4-dihydro-2H,6H-pyrimido[2,1-b][1,3]thiazine-7-carbonitrile] | 10 to 100 | – |

Source: US11807650B2, “NMDA receptor modulators and uses thereof” (Novartis AG, priority 2016, dated 2023)
